Results from patent publication EP1435238A1, “Methods for treating apnea and apnea disorders using optically pure R (+) ondansetron” (Sepracor Inc., priority 1999, dated 2000).

Assay: Electrophysiological effects (EKG, QTc interval, cardiotoxicity) in dogs
Type: in vivo, mongrel dogs
Settings: for prolongation of QTc interval (comparison in words): among the animals tested; for QTc Interval: dogs, rising cumulative dose at 30 minute intervals; for dogs died / survived: during or shortly after the experiment, four dogs per treatment, cumulative doses up to 4.0 mg/kg
[1] = 4.0 mg/kg, N=4 except S(-) ondansetron N=3

Description: An investigation was conducted to determine the effect of racemic ondansetron and the R(+)- and S(-)- enanatiomers of ondansetron in causing cardiac arrhythmias (cardiotoxicity) resulting from a lengthening of the cardiac action potential.
The order of administration was randomized to ensure that each dog received only one treatment.

| Structure (SMILES) | prolongation of QTc interval (comparison in words) | QTc Interval (1.0 mg/kg, N=4) [s] | QTc Interval (2.0 mg/kg, N=4) [s] | QTc Interval [1] [s] | dogs died / survived | cardiotoxicity (comparison in words) (conclusion from QTc and mortality data) |
| --- | --- | --- | --- | --- | --- | --- |
| Cc1nccn1CC1CCc2c(c3ccccc3n2C)C1=O (racemic) [R,S-Ondansetron, ondansetron] | most prolonged | 0.41 ± 0.01 | 0.45 ± 0.01 | 0.47 ± 0.01 | survived | – |
| Cc1nccn1C[C@H]1CCc2c(c3ccccc3n2C)C1=O [R(+)-Ondansetron, R(+) ondansetron] | shortest | 0.39 ± 0.01 | 0.40 ± 0.01 | 0.41 ± 0.02 | survived | less cardiotoxicity than either S(-) ondansetron or racemic ondansetron |
| Cc1nccn1C[C@@H]1CCc2c(c3ccccc3n2C)C1=O [S(-)-Ondansetron, S(-) ondansetron] | most prolonged | 0.43 ± 0.02 | 0.44 ± 0.04 | 0.44 ± 0.03 | – | – |
